Experimental data from PMC6536371 (Chemical biology & drug design, 2018).

Target: MT1-MMP (Homo sapiens, UniProt P50281)
Experiment: FRET triple-helical peptide
Type: biochemical

IC50: 19 ± 3 nM
SMILES: CNC(=O)[C@@H](NC(=O)[C@H](CC(C)C)[C@H](O)C(=O)NO)C(C)(C)C [marimastat]
